{
  "source": "patent US20140357713A1",
  "about": "“ANTIMICROBIAL COMPOUNDS AND METHODS OF USE” (NexMed Holdings, Inc., priority 2012, published 2014)",
  "key": {"Pseudomonas aeruginosa": {"test_system": "Pseudomonas aeruginosa", "test": "Extended time kill study, Example 34 (0 to 24 h)", "type": "cell-based", "in_short": "(§1)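 Strain suspensions prepared as for MIC testing were mixed 1:1 with compound solution at higher multiples of MIC. Samples taken over 0 to 24 h were diluted in test medium and plated on agar, and colonies were counted after 24–48 h incubation.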"}, "Staphylococcus aureus": {"test_system": "Staphylococcus aureus", "test": "Extended time kill study, Example 34 (0 to 24 h)", "type": "cell-based", "in_short": "as §1"}, "[1]": {"test": "Solubility (Sol., Table 1)", "type": "physicochemical"}, "[2]": {"test_system": "Aspergillus niger (CMCC 98003)", "test": "Minimum inhibitory concentration (MIC) assay, Example 33", "type": "cell-based", "conditions": "Aspergillus niger", "in_short": "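Conidia gently probed from sporulating colonies into RPMI 1640, set to 0.09-0.13 at 530 nm, then diluted 1:50 and mixed 1:2 with 2-fold serially diluted compounds. Following CLSI guidelines, incubation was at 35 °C before the MIC was recorded.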"}, "[3]": {"test_system": "Aspergillus niger (CMCC 98003)", "test": "Time kill study, Example 33 (0 to 5 min)", "type": "cell-based", "conditions": "1×MIC", "in_short": "(§2)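 Read-out: Log10 CFU/mL by colony count on agar after 24 to 48 hrs. Exposure: strain suspension and compound solution at equal volume, CLSI method, samples at 0 min, 30 sec, 1 min and 5 mins diluted in test medium before plating.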"}, "pH (Table 1)": {"test": "pH (Table 1)", "type": "physicochemical"}, "[4]": {"test_system": "Pseudomonas aeruginosa (ATCC 27853)", "test": "Time kill study, Example 33 (0 to 5 min)", "type": "cell-based", "conditions": "1×MIC", "in_short": "as §2"}, "[5]": {"test_system": "Staphylococcus aureus (ATCC 29213)", "test": "Time kill study, Example 33 (0 to 5 min)", "type": "cell-based", "conditions": "1×MIC", "in_short": "as §2"}, "[6]": {"test_system": "Escherichia coli (ATCC 25922)", "test": "Time kill study, Example 33 (0 to 5 min)", "type": "cell-based", "conditions": "1×MIC", "in_short": "as §2"}, "[7]": {"test_system": "Candida albicans (ATCC 90029)", "test": "Time kill study, Example 33 (0 to 5 min)", "type": "cell-based", "conditions": "1×MIC", "in_short": "as §2"}},
  "note": "Read-outs that look alike come from different tables or passages of the source.",
  "data": [
    {"smiles": "CCCCCCCCCCCCOC(=O)C(C)NCCO.Cl", "note": "(stereo not shown) [Nex-61, Dodecyl 2-((2-hydroxyethyl)amino)propanoate hydrochloride]", "values": [
      {"measurement": "Viable counts, Pseudomonas aeruginosa time kill study", "setting": "Pseudomonas aeruginosa; 1 × MIC, 1 h", "value": "<1", "unit": "Log10 CFU/mL"},
      {"measurement": "Viable counts, Pseudomonas aeruginosa time kill study", "setting": "Pseudomonas aeruginosa; 1 × MIC, 2 h", "value": "<1", "unit": "Log10 CFU/mL"},
      {"measurement": "Viable counts, Pseudomonas aeruginosa time kill study", "setting": "Pseudomonas aeruginosa; 1 × MIC, 4 h", "value": "<1", "unit": "Log10 CFU/mL"},
      {"measurement": "Viable counts, Pseudomonas aeruginosa time kill study", "setting": "Pseudomonas aeruginosa; 1 × MIC, 6 h", "value": "<1", "unit": "Log10 CFU/mL"},
      {"measurement": "Viable counts, Pseudomonas aeruginosa time kill study", "setting": "Pseudomonas aeruginosa; 1 × MIC, 24 h", "value": "<1", "unit": "Log10 CFU/mL"},
      {"measurement": "Viable counts, Pseudomonas aeruginosa time kill study", "setting": "Pseudomonas aeruginosa; 1×MIC, time 0", "value": 5.28, "unit": "Log10 CFU/mL"},
      {"measurement": "Viable counts, Pseudomonas aeruginosa time kill study", "setting": "Pseudomonas aeruginosa; 2 × MIC, 1 h", "value": "<1", "unit": "Log10 CFU/mL"},
      {"measurement": "Viable counts, Pseudomonas aeruginosa time kill study", "setting": "Pseudomonas aeruginosa; 2 × MIC, 2 h", "value": "<1", "unit": "Log10 CFU/mL"},
      {"measurement": "Viable counts, Pseudomonas aeruginosa time kill study", "setting": "Pseudomonas aeruginosa; 2 × MIC, 4 h", "value": "<1", "unit": "Log10 CFU/mL"},
      {"measurement": "Viable counts, Pseudomonas aeruginosa time kill study", "setting": "Pseudomonas aeruginosa; 2 × MIC, 6 h", "value": "<1", "unit": "Log10 CFU/mL"},
      {"measurement": "Viable counts, Pseudomonas aeruginosa time kill study", "setting": "Pseudomonas aeruginosa; 2 × MIC, 24 h", "value": "<1", "unit": "Log10 CFU/mL"},
      {"measurement": "Viable counts, Pseudomonas aeruginosa time kill study", "setting": "Pseudomonas aeruginosa; 2 × MIC, time 0", "value": 5.29, "unit": "Log10 CFU/mL"},
      {"measurement": "Viable counts, Pseudomonas aeruginosa time kill study", "setting": "Pseudomonas aeruginosa; 4 × MIC, 1 h", "value": "<1", "unit": "Log10 CFU/mL"},
      {"measurement": "Viable counts, Pseudomonas aeruginosa time kill study", "setting": "Pseudomonas aeruginosa; 4 × MIC, 2 h", "value": "<1", "unit": "Log10 CFU/mL"},
      {"measurement": "Viable counts, Pseudomonas aeruginosa time kill study", "setting": "Pseudomonas aeruginosa; 4 × MIC, 4 h", "value": "<1", "unit": "Log10 CFU/mL"},
      {"measurement": "Viable counts, Pseudomonas aeruginosa time kill study", "setting": "Pseudomonas aeruginosa; 4 × MIC, 6 h", "value": "<1", "unit": "Log10 CFU/mL"},
      {"measurement": "Viable counts, Pseudomonas aeruginosa time kill study", "setting": "Pseudomonas aeruginosa; 4 × MIC, 24 h", "value": "<1", "unit": "Log10 CFU/mL"},
      {"measurement": "Viable counts, Pseudomonas aeruginosa time kill study", "setting": "Pseudomonas aeruginosa; 4 × MIC, time 0", "value": 5.26, "unit": "Log10 CFU/mL"},
      {"measurement": "Viable counts, Staphylococcus aureus time kill study", "setting": "Staphylococcus aureus; 1 × MIC, 1 h", "value": 5, "unit": "Log10 CFU/mL"},
      {"measurement": "Viable counts, Staphylococcus aureus time kill study", "setting": "Staphylococcus aureus; 1 × MIC, 2 h", "value": "<3", "unit": "Log10 CFU/mL"},
      {"measurement": "Viable counts, Staphylococcus aureus time kill study", "setting": "Staphylococcus aureus; 1 × MIC, 4 h", "value": "<3", "unit": "Log10 CFU/mL"},
      {"measurement": "Viable counts, Staphylococcus aureus time kill study", "setting": "Staphylococcus aureus; 1 × MIC, 6 h", "value": "<3", "unit": "Log10 CFU/mL"},
      {"measurement": "Viable counts, Staphylococcus aureus time kill study", "setting": "Staphylococcus aureus; 1 × MIC, 24 h", "value": "<1", "unit": "Log10 CFU/mL"},
      {"measurement": "Viable counts, Staphylococcus aureus time kill study", "setting": "Staphylococcus aureus; 1×MIC, time 0", "value": 6.14, "unit": "Log10 CFU/mL"},
      {"measurement": "Viable counts, Staphylococcus aureus time kill study", "setting": "Staphylococcus aureus; 2 × MIC, 1 h", "value": "<3", "unit": "Log10 CFU/mL"},
      {"measurement": "Viable counts, Staphylococcus aureus time kill study", "setting": "Staphylococcus aureus; 2 × MIC, 2 h", "value": "<3", "unit": "Log10 CFU/mL"},
      {"measurement": "Viable counts, Staphylococcus aureus time kill study", "setting": "Staphylococcus aureus; 2 × MIC, 4 h", "value": "<3", "unit": "Log10 CFU/mL"},
      {"measurement": "Viable counts, Staphylococcus aureus time kill study", "setting": "Staphylococcus aureus; 2 × MIC, 6 h", "value": "<3", "unit": "Log10 CFU/mL"},
      {"measurement": "Viable counts, Staphylococcus aureus time kill study", "setting": "Staphylococcus aureus; 2 × MIC, 24 h", "value": "<1", "unit": "Log10 CFU/mL"},
      {"measurement": "Viable counts, Staphylococcus aureus time kill study", "setting": "Staphylococcus aureus; 2 × MIC, time 0", "value": 6.20, "unit": "Log10 CFU/mL"},
      {"measurement": "Viable counts, Staphylococcus aureus time kill study", "setting": "Staphylococcus aureus; 4 × MIC, 1 h", "value": "<3", "unit": "Log10 CFU/mL"},
      {"measurement": "Viable counts, Staphylococcus aureus time kill study", "setting": "Staphylococcus aureus; 4 × MIC, 2 h", "value": "<3", "unit": "Log10 CFU/mL"},
      {"measurement": "Viable counts, Staphylococcus aureus time kill study", "setting": "Staphylococcus aureus; 4 × MIC, 4 h", "value": "<3", "unit": "Log10 CFU/mL"},
      {"measurement": "Viable counts, Staphylococcus aureus time kill study", "setting": "Staphylococcus aureus; 4 × MIC, 6 h", "value": "<3", "unit": "Log10 CFU/mL"},
      {"measurement": "Viable counts, Staphylococcus aureus time kill study", "setting": "Staphylococcus aureus; 4 × MIC, 24 h", "value": "<1", "unit": "Log10 CFU/mL"},
      {"measurement": "Viable counts, Staphylococcus aureus time kill study", "setting": "Staphylococcus aureus; 4 × MIC, time 0", "value": 6.18, "unit": "Log10 CFU/mL"},
      {"measurement": "Sol.", "setting": "[1]", "value": 40, "unit": "%"},
      {"measurement": "MIC", "setting": "[2]; CMCC98003, Table 19 summary, read-out: MIC", "value": 50, "unit": "µg/mL"},
      {"measurement": "MIC", "setting": "[2]; CMCC98003, n = 1, read-out: MIC Aspergillus niger", "value": 50, "unit": "µg/mL"},
      {"measurement": "MIC", "setting": "[2]; CMCC98003, n = 2, read-out: MIC Aspergillus niger", "value": 25, "unit": "µg/mL"},
      {"measurement": "Viable counts, Aspergillus niger time kill study", "setting": "[3]; 0.5 min", "value": 5.30, "unit": "Log10 CFU/mL"},
      {"measurement": "Viable counts, Aspergillus niger time kill study", "setting": "[3]; 1 min", "value": 5.16, "unit": "Log10 CFU/mL"},
      {"measurement": "Viable counts, Aspergillus niger time kill study", "setting": "[3]; 5 min", "value": 5.11, "unit": "Log10 CFU/mL"},
      {"measurement": "Viable counts, Aspergillus niger time kill study", "setting": "[3]; time 0", "value": 5.36, "unit": "Log10 CFU/mL"},
      {"measurement": "pH", "setting": "pH (Table 1)", "value": 1.50},
      {"measurement": "Viable counts, Pseudomonas aeruginosa time kill study", "setting": "[4]; 0.5 min", "value": 4, "unit": "Log10 CFU/mL"},
      {"measurement": "Viable counts, Pseudomonas aeruginosa time kill study", "setting": "[4]; 1 min", "value": "<3.70", "unit": "Log10 CFU/mL"},
      {"measurement": "Viable counts, Pseudomonas aeruginosa time kill study", "setting": "[4]; 5 min", "value": "<3.52", "unit": "Log10 CFU/mL"},
      {"measurement": "Viable counts, Pseudomonas aeruginosa time kill study", "setting": "[4]; time 0", "value": 5.71, "unit": "Log10 CFU/mL"},
      {"measurement": "Viable counts, Staphylococcus aureus time kill study", "setting": "[5]; 0.5 min", "value": 6.15, "unit": "Log10 CFU/mL"},
      {"measurement": "Viable counts, Staphylococcus aureus time kill study", "setting": "[5]; 1 min", "value": 6.07, "unit": "Log10 CFU/mL"},
      {"measurement": "Viable counts, Staphylococcus aureus time kill study", "setting": "[5]; 5 min", "value": 5.54, "unit": "Log10 CFU/mL"},
      {"measurement": "Viable counts, Staphylococcus aureus time kill study", "setting": "[5]; time 0", "value": 6.38, "unit": "Log10 CFU/mL"},
      {"measurement": "Viable counts, Escherichia coli time kill study", "setting": "[6]; 0.5 min", "value": 5.54, "unit": "Log10 CFU/mL"},
      {"measurement": "Viable counts, Escherichia coli time kill study", "setting": "[6]; 1 min", "value": 5.61, "unit": "Log10 CFU/mL"},
      {"measurement": "Viable counts, Escherichia coli time kill study", "setting": "[6]; 5 min", "value": 4.9, "unit": "Log10 CFU/mL"},
      {"measurement": "Viable counts, Escherichia coli time kill study", "setting": "[6]; time 0", "value": 5.78, "unit": "Log10 CFU/mL"},
      {"measurement": "Viable counts, Candida albicans time kill study", "setting": "[7]; 0.5 min", "value": 5.19, "unit": "Log10 CFU/mL"},
      {"measurement": "Viable counts, Candida albicans time kill study", "setting": "[7]; 1 min", "value": 5.36, "unit": "Log10 CFU/mL"},
      {"measurement": "Viable counts, Candida albicans time kill study", "setting": "[7]; 5 min", "value": 5.3, "unit": "Log10 CFU/mL"},
      {"measurement": "Viable counts, Candida albicans time kill study", "setting": "[7]; time 0", "value": 5.23, "unit": "Log10 CFU/mL"}
    ]}
  ]
}
